Reference: ChEMBL document CHEMBL5505980, “Pyrazolamide derivatives inhibit α-Synuclein aggregation, disaggregate preformed fibers, and reduce inclusion formation in neuron cells” (Eur J Med Chem, 2024)

Tests used:
[1] = Apparent permeability across basolateral side to apical in MDCKII-MDR1 cells at 10 uM by LC-MS/MS analysis; format: ADME, cell-based, Canis lupus familiaris; details: dog, MDCK-MDR1
H4 [2] = assay: Cytotoxicity against human H4 cells assessed as cell viability at 1 to 1000 uM incubated for 24 hrs by CCK-8 assay; format: toxicity, cell-based; details: h4, 24 h, dose 1-1000 µM
[3] = Cytotoxicity against human H4 cells assessed as cell viability at 30 uM incubated for 24 hrs by CCK-8 assay relative to control; format: toxicity, cell-based; details: read-out: Activity
[4] = Apparent permeability across apical to basolateral side in MDCKII-MDR1 cells at 10 uM by LC-MS/MS analysis; format: ADME, cell-based, Canis lupus familiaris; details: dog, MDCK-MDR1
H4 [5] = assay: Cytotoxicity against human H4 cells assessed as cell viability at 300 uM incubated for 24 hrs by CCK-8 assay relative to control; format: toxicity, cell-based; details: h4, 24 h
Alpha-synuclein = Alpha-synuclein (Homo sapiens, UniProt P37840); assay: Inhibition of alpha-synuclein (unknown origin) aggregation inhibition ratio by measuring relative fluorescence intensity measured after 3 days by ThT F1 based assay relative to control

SMILES	Papp B→A at 10 µM [1]	Activity (H4 [2])	viability at 24 h, 30 µM [3]	Papp A→B at 10 µM [4]	Activity (H4 [5])	IC50 (Alpha-synuclein)
O=C(Nc1cc(O)ccc1O)c1cc(-c2ccc(C(F)(F)F)cc2)n[nH]1	19.3 ×10⁻⁶ cm/s	Non-Toxic	95%	49.7 ×10⁻⁶ cm/s	–	–
O=C(Nc1cc(O)ccc1O)c1cc(-c2ccc(Br)cc2)n[nH]1	12 ×10⁻⁶ cm/s	Non-Toxic	95%	29.6 ×10⁻⁶ cm/s	Non-Toxic	–
Cc1ccc(-c2cc(C(=O)Nc3cc(O)ccc3O)[nH]n2)cc1	6.65 ×10⁻⁶ cm/s	Non-Toxic	74%	2.26 ×10⁻⁶ cm/s	–	–
O=C(Nc1ccc(O)c(O)c1)c1cc(-c2ccc(C(F)(F)F)cc2)n[nH]1	1.86 ×10⁻⁶ cm/s	Non-Toxic	95%	4.2 ×10⁻⁶ cm/s	–	–
O=C(O[C@@H]1Cc2c(O)cc(O)cc2O[C@@H]1c1cc(O)c(O)c(O)c1)c1cc(O)c(O)c(O)c1 [EPIGALOCATECHIN GALLATE]	–	Non-Toxic	–	–	–	2580 nM
